Patent publication US7485651B2, “Compounds with activity on muscarinic receptors” (Acadia Pharmaceuticals, Inc., priority 1998, dated 2009)

How the values were obtained:
serotonin 5-HT1A = molecular target: T1, serotonin 5-HT1A (Homo sapiens, UniProt P08908); test: Test against other receptors: serotonin 5-HT1A; type: cell-based
T1 sequence (P08908 1-422): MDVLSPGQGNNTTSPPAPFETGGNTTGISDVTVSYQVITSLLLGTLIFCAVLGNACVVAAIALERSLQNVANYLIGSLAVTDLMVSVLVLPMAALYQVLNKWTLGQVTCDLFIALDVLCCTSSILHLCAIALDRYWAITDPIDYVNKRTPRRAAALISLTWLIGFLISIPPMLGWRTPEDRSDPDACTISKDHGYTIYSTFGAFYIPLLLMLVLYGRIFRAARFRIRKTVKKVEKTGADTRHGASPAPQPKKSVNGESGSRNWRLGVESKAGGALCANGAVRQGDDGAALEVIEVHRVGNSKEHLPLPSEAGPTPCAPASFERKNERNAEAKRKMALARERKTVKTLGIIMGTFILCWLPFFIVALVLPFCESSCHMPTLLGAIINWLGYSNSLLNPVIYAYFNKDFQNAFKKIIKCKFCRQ

m1 receptor = molecular target: T2, m1 receptor (Homo sapiens, UniProt P11229); test: R-SAT / NIH 3T3 cells transfected with m1 muscarinic receptor; type: cell-based
T2 construct: expressed in transfected cells; host or cells: NIH 3T3 (ATCC CRL 1658)
T2 sequence (P11229 1-460): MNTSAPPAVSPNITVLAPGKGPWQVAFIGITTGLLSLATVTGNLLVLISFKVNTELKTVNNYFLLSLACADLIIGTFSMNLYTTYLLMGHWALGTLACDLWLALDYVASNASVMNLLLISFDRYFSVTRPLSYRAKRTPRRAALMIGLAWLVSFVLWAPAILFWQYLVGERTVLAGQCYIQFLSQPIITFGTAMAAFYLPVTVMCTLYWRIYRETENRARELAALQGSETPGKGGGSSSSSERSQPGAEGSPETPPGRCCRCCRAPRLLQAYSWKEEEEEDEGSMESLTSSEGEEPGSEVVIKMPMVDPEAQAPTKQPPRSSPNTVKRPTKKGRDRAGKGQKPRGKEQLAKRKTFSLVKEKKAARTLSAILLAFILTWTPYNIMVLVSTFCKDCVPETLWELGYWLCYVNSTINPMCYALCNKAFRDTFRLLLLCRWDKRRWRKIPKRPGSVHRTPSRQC
Method: Cell amplification is detected as increased levels of a marker also expressed by the cells.
The cells were treated with trypsin-EDTA, spun down and plated at 2×10^6 per 15 cm dish in 20 m1 of DMEM containing 10% calf serum.
On day one, the cells were transfected using the Superfect transfection reagent (available from Qiagen, Valencia, Calif.) in accordance with the manufacturer's instructions. Receptor DNA, β-gal DNA (pSI-β-galactosidase available from Promega, Madison, Wis.), chimeric Gq-i5 DNA for the m2 and m4 receptor subtype assays, and salmon sperm DNA (available from Sigma, St. Louis, […].) as filler to a total of 20 μg DNA was added per plate. Prior to addition to the plates, 60 μl Superfect was added to the DNA and mixed thoroughly by pipetting up and down several times. The mixture was incubated at room temperature for 10-15 minutes. The media were aspirated, and 12 ml fresh DMEM containing 10% calf serum and 50 units/m1 penicillin/streptomycin was added to the plates. The DNA-Superfect solution was mixed once more with a pipette and added to the plate which was swirled to distribute the DNA mixture evenly over the surface. The cells were incubated overnight at 37° C. and 5% CO2. After incubation, the media were aspirated and the plates were rinsed once with a 15 m1 volume of Hank's Buffered Saline. The plates were swirled to ensure thorough rinsing. 20 m1 fresh DMEM supplemented with 10% calf serum and 50 units/m1 penicillin/streptomycin was added to the plates. The cells were incubated for 24-48 hours until the plates were 100% confluent.
Assay of NIH 3T3 cells transfected with muscarinic receptor subtypes (general procedure) DMEM containing 2% Cyto-SF3 was heated at 37° C. in a water bath under sterile conditions. Sterile working stock solutions of test compounds to be assayed were prepared by diluting the compounds in DMEM to 8× the final concentration for testing. The compound (carbachol) to be included in the assay as a positive control was also diluted in DMEM to 8× the final concentration. 50 μL of the DMEM containing 2% Cyto-SF3 was added to each well of 96-well microtiter plates under sterile conditions. Then, 16 of compound solutions were added to the top wells of the plates, and dilution of the solutions was performed by taking 16 μl of the compound solutions from the top wells and pipetting them into the next row of wells. This procedure was repeated with each subsequent row of wells, except that 50 μl medium alone was added to the baseline control wells (the wells that contain medium and cells, but not test compounds) and plate control wells (wells containing medium, but not test compounds and cells). The plates were then placed in an incubator at 37° C. to equilibrate temperature and pH.
When the cell cultures had reached 100% confluence, the medium was aspirated and each plate was rinsed with 15 m1 Hank's Buffered Saline (HBS). The cells were left in the incubator for about 10-15 minutes until the HBS had turned slightly yellow. The HBS was then aspirated and 1 m1 trypsin was added to each plate and swirled so as to completely cover the plates. The edges of the plates were gently rapped several times to loosen the cells. After the cells had been dislodged from the surface, 8 m1 DMEM containing 10% calf serum and 50 units/m1 penicillin and 50 units/m1 streptomycin was added to inhibit the trypsin. The plates were rinsed with this medium, and the cells were pipetted into a tube. The cells were centrifuged at 1000 rpm for 5-10 min. in an IEC Centra CL2 centrifuge (produced by Sorvall). Afterwards, the medium was carefully aspirated so as not to dislodge the cells. The cell pellet was suspended in 1600 μl DMEM containing 10% calf serum and 50 units/m1 penicillin and 50 units/m1 streptomycin, after which 20 m1 DMEM supplemented with 2% Cyto-SF3 was added. 50 μl aliquots of this cell suspension was added to the wells of the 96-well microtiter plates prepared above (except for the plate control wells).

serotonin 5-HT2A = serotonin 5-HT2A (Homo sapiens, UniProt P28223); test: Test against other receptors: serotonin 5-HT2A
Chain of serotonin 5-HT2A (P28223 whole entry): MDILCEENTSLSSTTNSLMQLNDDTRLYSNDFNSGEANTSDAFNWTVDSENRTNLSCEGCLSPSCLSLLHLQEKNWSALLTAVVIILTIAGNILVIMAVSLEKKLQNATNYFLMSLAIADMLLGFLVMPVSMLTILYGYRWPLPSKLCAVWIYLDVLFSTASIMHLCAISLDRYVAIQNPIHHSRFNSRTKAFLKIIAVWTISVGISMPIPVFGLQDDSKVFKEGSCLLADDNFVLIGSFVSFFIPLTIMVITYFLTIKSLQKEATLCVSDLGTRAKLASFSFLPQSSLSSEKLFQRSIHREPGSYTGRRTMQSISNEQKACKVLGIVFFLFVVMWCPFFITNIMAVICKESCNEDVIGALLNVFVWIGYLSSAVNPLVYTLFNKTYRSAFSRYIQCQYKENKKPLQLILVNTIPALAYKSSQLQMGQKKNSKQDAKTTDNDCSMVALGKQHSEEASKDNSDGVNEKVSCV

Structure (SMILES): CCCCC1CCN(CCCC(=O)c2ccccc2C)CC1 [Compound A, 4-n-Butyl-1-[4-(2-methylphenyl)-4-oxo-1-butyl]piperidine]
- agonist activity (serotonin 5-HT1A): no significant activity
- inhibition of receptor responses (antagonist experiments) (serotonin 5-HT1A): did not inhibit
- Emax at 1.5 µM (m1 receptor; NIH3T3, m1, compound at 1.5 μM, maximum = response to 10 μM carbachol, read-out: Cellular response as a percentage of the maximum response of the cells): 107%
- antagonism of carbachol-induced responses (m1 receptor; m1): not an antagonist
- maximal response relative to reference compound carbachol (m1 receptor; m1 receptor): lower maximal response than the reference compound carbachol
- agonist activity at the m1 receptor (m1 receptor; receptor transfected into separate cell cultures): potent partial agonist
- agonist activity (serotonin 5-HT2A): no significant activity
- inhibition of receptor responses (antagonist experiments) (serotonin 5-HT2A): did not inhibit
